Test results from patent US5219859A, “Indole derivatives, preparation processes and medicinal products containing them” (Lipha, Lyonnaise Industrielle Pharmaceutique, priority 1991, dated 1993).

Key:
blood cholesterol level = experiment: Test B: measurement of the hypocholesterolaemic effect in rodents; format: in vivo, male Wistar rats; conditions: Rattus norvegicus, po; rats, diet enriched with 2.5% of cholesterol for 8 days; orally, 24 hours and 4 hours before sacrifice; read-out: 25% effective dose (ED25), quantity of compound which lowers the blood cholesterol level by 25%
Experimental: Test B: measurement of the hypocholesterolaemic effect in rodents: male Wistar rats weighing 200-220 g are subjected to a diet enriched with 2.5% of cholesterol for 8 days; on the last two days, they are treated orally with the test product 24 hours and 4 hours before being sacrificed by exsanguination: the blood cholesterol level is evaluated on an aliquot fraction of serum by an automated enzymatic method. The results are expressed in the form of a 25% effective dose (ED25) in mg per kg of body weight, representing the quantity of compound which lowers the blood cholesterol level by 25%.

blood sugar level = experiment: Test D: measurement of the hypoglycaemic effect; format: in vivo, male Swiss mice; conditions: mice, orally, dose of 60 mg.kg, one hour
Experimental: Test D: measurement of the hypoglycaemic effect: male Swiss mice weighing 26-28 g are treated orally with the test product. One hour later, the animals are sacrificed by exsanguination, and the blood sugar level is measured on an aliquot fraction of plasma by an enzymatic method employing glucose oxidase.

[1] = biological target: T1, aortic ACAT (acylcoenzyme A:cholesterol acyltransferase) (Oryctolagus cuniculus, UniProt A0A5F9CPP4); experiment: Test A: measurement of the inhibition of aortic ACAT in vitro in rabbits; format: biochemical, male New Zealand rabbits; conditions: microsomal fraction of aorta of rabbits on a diet enriched with 1.25% of cholesterol; [^14 C]oleylcoenzyme A; read-out: 50% inhibitory concentration (IC50), concentration of compound which inhibits the ACAT activity by 50%
T1 construct: the aorta is removed, dissected and homogenised in order to prepare the microsomal fraction of it by ultracentrifugation; from tissue; host or cells: aorta microsomes of cholesterol-fed male New Zealand rabbits
T1 sequence (A0A5F9CPP4 1-555): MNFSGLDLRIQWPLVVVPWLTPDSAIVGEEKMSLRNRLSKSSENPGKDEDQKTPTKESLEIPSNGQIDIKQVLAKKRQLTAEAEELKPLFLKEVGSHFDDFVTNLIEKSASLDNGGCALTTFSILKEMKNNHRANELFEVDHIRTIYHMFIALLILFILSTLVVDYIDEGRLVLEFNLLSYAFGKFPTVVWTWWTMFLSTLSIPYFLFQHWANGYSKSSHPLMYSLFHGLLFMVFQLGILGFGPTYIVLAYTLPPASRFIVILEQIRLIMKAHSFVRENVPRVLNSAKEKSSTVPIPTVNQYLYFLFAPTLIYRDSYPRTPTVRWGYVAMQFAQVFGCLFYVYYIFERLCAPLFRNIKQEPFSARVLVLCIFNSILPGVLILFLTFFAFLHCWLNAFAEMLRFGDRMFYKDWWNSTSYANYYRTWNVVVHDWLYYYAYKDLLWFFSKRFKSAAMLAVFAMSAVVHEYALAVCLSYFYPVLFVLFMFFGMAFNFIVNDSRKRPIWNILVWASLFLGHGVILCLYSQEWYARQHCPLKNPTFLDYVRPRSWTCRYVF
Experimental: Test A: measurement of the inhibition of aortic ACAT in virro in rabbits: male New Zealand rabbits weighing between 2.2 and 2.5 kg, subjected beforehand for 15 days to a diet enriched with 1.25% of cholesterol, are sacrificed by cervical dislocation; the aorta is removed, dissected and homogenised in order to prepare the microsomal fraction of it by ultracentrifugation; these microsomes are incubated in the presence of [^14 C]oleylcoenzyme A in accordance with the method described by P. J. GILLIES et al., Exp. and Mol. Pathol., 1986, 44, 329-339; the lipids are extracted from the incubate with a methanol/chloroform mixture and the [^14 C]oleylcholesterol is separated by TLC: the latter compound represents a measure of the ACAT activity, and the results were expressed in the form of a 50% inhibitory concentration (IC50), representing the concentration of compound which inhibits the ACAT activity by 50%.

[2] = tested on: intestinal absorption of cholesterol; experiment: Test C: measurement of the inhibition of intestinal absorption in rats; format: in vivo, male Wistar rats; conditions: Rattus norvegicus, po, fasted 24 hours, orally, with Triton WR-1339 I.V., [^3 H]cholesterol orally one hour later, blood three hours later, read-out: 50% effective dose (ED50), quantity of compound which inhibits the intestinal absorption of cholesterol by 50%
Experimental: Test C: measurement of the inhibition of intestinal absorption in rats; male Wistar rats weighing 230-250 g, fasted for 24 hours, are treated simultaneously with the test product administered orally and with Triton WR-1339 administered I.V.; one hour later, they are again treated orally with [^3 H]cholesterol; three hours later, under ether anaesthesia, 1 ml of blood is withdrawn from the animals' retro-orbital sinus: the blood radioactivity, evaluated on 0.1 ml of serum, represents a measure of the absorption of the [^3 H]cholesterol administered. The results are expressed in the form of a 50% effective dose (ED50) in mg per kg of body weight, representing the quantity of compound which inhibits the intestinal absorption of cholesterol by 50%.

IC50 [1]: 46 nM
SMILES: CC(C)c1cccc(C(C)C)c1NC(=O)NCC1(c2cn(C)c3ccccc23)CCCC1 [compound No. 1, N^1-(2,6-Diisopropylphenyl)-N^2-[1-(1-methyl-3-indolyl)-cyclopentylmethyl]urea]
ED25 (blood cholesterol level): 0.098 mg/kg
significant lowering of the blood sugar level (blood sugar level): 21%
ED50 [2]: 0.176 mg/kg
